From patent US20220120736A1, “METHODS AND ASSAYS FOR MODULATING GENE TRANSCRIPTION BY MODULATING CONDENSATES” (Whitehead Institute for Biomedical Research, priority 2018, published 2022)

Assays:
[1] = system: MYC RNA expression in MCF7 cells; assay: RT-qPCR of MYC RNA expression; type: cell-based, human; conditions: MCF7 cells estrogen-deprived 3 days; 10 nM estrogen, or 10 nM estrogen and 5 uM 4-hydroxytamoxifen, 24 hours; normalized to GAPDH
Description: RNA was isolated by AllPrep Kit (Qiagen 80204) followed by cDNA synthesis using High-Capacity cDNA Reverse Transcription Kit (Applies Biosystems 4368814). qPCR was performed in biological and technical triplicate using Power SYBR Green mix (Life Technologies #4367659) on a QuantStudio 6 System (Life Technologies). The following oligos was used in the qPCR; Myc fwd […] (SEQ ID NO: 255), MYC rev […] (SEQ ID NO: 256), GAPDH fwd […] (SEQ ID NO: 257), GAPDH rev […] (SEQ ID NO: 258). Fold change was calculated and MYC expression values were normalized to GAPDH expression.

[2] = system: ER LBD-MED1 condensate in U2OS-Lac cells; assay: LAC binding assay (ER LBD tethered to Lac array); type: cell-based; conditions: for MED1-containing condensate formation at tethered ER LBD: U2OS-Lac cells, 45 minutes, 10 nM B-Estradiol or 1 uM 4-Hydroxytamoxifen
Description: Constructs were assembled by NEB HIFI cloning in pSV2 mammalian expression vector containing an SV40 promoter driving expression of a CFP-LacI fusion protein. The activation domains and mutant activation domains of ESR1 were fused by the c-terminus to this recombinant protein, joined by the linker sequence […] (SEQ ID NO: 14). For some experiments a variant plasmid with mCherry in place of CFP was used. […] Cells were then plated on fibronectin-coated glass coverslips and transfected using lipofectamine 3000 (Thermofisher L3000015). For high MED1 conditions, a construct with a mammalian expression vector containing a PGK promoter driving the expression of MED1 fused to GFP was co-transfected. […] Following treatment, cells were fixed and immunofluorescence was performed with a MED1 antibody as described above.
For analysis of Lac array data, custom Python scripts were written to process and analyze image data gathered in Lac and tagged-protein channels. Nuclear stains were blurred with a Gaussian filter (sigma=2.0) and clustered into 2 clusters (nuclei and background) by K-means. The nuclei were then labeled with the python scikit-image package using the measure.label function. To segment Lac spots, the Lac image channel was blurred with a Gaussian filter (sigma=2.0), and an intensity threshold (mean+1.5*std) was applied to the image. Segmented regions (also determined by measure.label) were then filtered based on minimum area (150 pixels), maximum area (2000 pixels), circularity (c=4pi*area/perimeter^2; 0.8), and presence in a nucleus as defined by the mask described above. A norm enrichment ratio was calculated by determining the mean intensity of the tagged-protein in the segmented Lac spot and dividing it by the mean intensity of the tagged-protein present in the same whole nucleus.

[3] = system: ER Y537S, ER D538G, ER-YAP1, ER-PCDH11X condensates with MED1; assay: In vitro droplet formation assay, mutant ER GFP fusion proteins and MED1; type: biochemical; conditions: all four mutant ER proteins; ligand 100 uM
Description: Recombinant GFP or mCherry fusion proteins were concentrated and desalted to an appropriate protein concentration and 125 mM NaCl using Amicon Ultra centrifugal filters (30K MWCO, Millipore). Recombinant proteins were added to solutions at varying concentrations with indicated final salt and 10% PEG-8000 as crowding agent in Droplet Formation Buffer (50 mM Tris-HCl pH 7.5, 10% glycerol, 1 mM DTT). The protein solution was immediately loaded onto a homemade chamber comprising a glass slide with a coverslip attached by two parallel strips of double-sided tape. Slides were then imaged with an Andor confocal microscope with a 150× objective. Unless indicated, images presented are of droplets settled on the glass coverslip. […] One microliter of this concentrated stock was used in a 10 uL droplet formation reaction to achieve a final concentration of 100 uM. To calculate enrichment for the in vitro droplet assay, droplets were defined as a region of interest in FIJI by the MED1 scaffold channel, and the maximum signal of the ER client within that droplet was determined. Alternatively, maximum signal of MED1 was measured. In all cases, the maximum signal was divided by the background client signal in the image to generate a Cin/out.

Question: Which “MYC RNA expression” value [1] does the source give for `C[C@]12CC[C@@H]3c4ccc(O)cc4CC[C@H]3[C@@H]1CC[C@@H]2O` [estrogen, B-Estradiol] here?
Answer: increase

Question: And the “MED1-containing condensate formation at tethered ER LBD” value [2]?
Answer: generated a MED1-containing condensate

Question: What about the “MED1 condensate formation at tethered ER LBD, dependence on estrogen” value ([2]; normal ER) of the same molecule?
Answer: only in the presence of estrogen

Question: And the “Condensate formation of mutant ER proteins with MED1” value [3]?
Answer: estrogen-independent

Question: Which “MYC RNA expression” value [1] does the source give for `CC/C(=C(\c1ccccc1)c1ccc(OCCN(C)C)cc1)c1ccccc1` [tamoxifen] here?
Answer: reduced

Question: And the “MED1 condensate generation by tethered ER LBD in the presence of tamoxifen” value ([2]; MED1 overexpressed)?
Answer: generated a MED1 condensate

Question: What about the “MED1-containing condensate formation at tethered ER LBD” value [2] of the same molecule?
Answer: prevented

Question: What about the “MED1 condensate generation by tethered ER LBD in the presence of tamoxifen” value ([2]; normal MED1 levels) of the same molecule?
Answer: did not generate a MED1 condensate

Question: What about the “Condensate formation of mutant ER proteins with MED1” value [3] of the same molecule?
Answer: tamoxifen-insensitive
